Laboratory results: US9216171B2, “Methods of preventing ischemic injury using peripheral nociceptive stimulation” (University of Cincinnati, priority 2009, dated 2015)

Assays:
Format in all cases: in vivo
[1] = system: murine ischemia/reperfusion model of myocardial infarction; assay: Mouse ischemia/reperfusion model: infarct size after remote topical TRP agonist
Description: A previously described mouse model of ischemia and reperfusion (I/R) injury in vivo was used (Ren et al. (2004) J. Surg Res. 121(1):120-129; Fan et al (2005) Circulation 111(14):1792-1799; Zhou et al (2007) Cardiovascular Research 75(3) 487-497; and Diwan et al (2007) J. Clinical Investigation 117(10):2825-2833, herein incorporated by reference in their entirety). Mice were anesthetized with sodium pentobarbital (90 mg/kg ip), intubated with PE 90 tubing and ventilated using a mouse miniventilator (Harvard Apparatus, Holliston, Mass.). All mice were continuously monitored by electrocardiography ([…] Sinus Rhythm Analyzer, Micro-Med Inc), and mice without evidence of ischemia and timely reperfusion were excluded from the studies. A lateral thoracotomy (1.5 cm incision between the second and third ribs was performed to provide exposure of the left anterior descending coronary artery (LAD). Vascular bundles in the vicinity were coagulated using a microcoagulator (Medical Industries Inc, St. Petersburg Fla.). An 8-0 nylon suture was placed around the LAD 2-3 mm from the tip of the left auricle and a piece of soft silicon tubing (0.64 mm ID, 1.19 mm OD) was placed over the artery. Coronary occlusion was achieved by tightening and tying the suture. Coronary occlusion was for 45 minutes, unless indicated otherwise. At the end of the occlusion, the suture was untied and left in place. Ischemia was confirmed by visual observation of cyanosis and by continuous ECG monitoring (QRS complex widening, T wave inversion and ST segment changes); reperfusion was confirmed by reversal of these effects. Results of one such experiment are presented in FIG. 1, panel A. Mice were euthanized either 4 or 24 hours after reperfusion and infarct size determination and imaging were performed by previously described methods (Ren et al. (2004) J. Surg Res. 121(1):120-129 and Guo et al (1998) Am J. Physiology 275 (4 Pt 2):[…]-1387, herein incorporated by reference in their entirety). Mice were anesthetized with pentobarbital sodium (35 mg/kg iv) and euthanized with an intravenous bolus of KCl. The heart was excised and perfused with Krebs-Henseleit solution through an aortic cannula (22 or 23-gauge needle) using a Langerdorff apparatus. To delineate infarcted from viable myocardium, the heart was then perfused with a 1% solution of 2,3,5-triphenyltetrazolium chloride (TTC) in phosphate buffer (pH 7.4, 37° C.) at a pressure of […] (approx. 3 ml over 3 min). […] Infarct size was determined by the method of Fishbein et al (1981) Am Heart J 101(5):593-600, herein incorporated by reference in its entirety. […] Infarct size was determined as described elsewhere herein. […]

TRPV1 = molecular target: T1, TRPV1 (Mus musculus, UniProt Q704Y3); assay: Topical capsaicin before ischemia/reperfusion in wild-type vs TRPV1 knock-out mice; conditions: capsaicin topically administered to the abdomen prior to ischemia and reperfusion; FIG. 2E
T1 construct: data from wild-type mice topically treated with capsaicin administered to the abdomen prior to surgical induction of ischemia and reperfusion; from tissue; host or cells: Living wild-type mouse; abdominal skin nociceptors (C-fibers), in vivo
Description: FIG. 2, panel E presents a graph of results obtained from wild-type (WT) and TRPV1 knock-out (TRPVKO) mice using topical capsaicin as the cardioprotective stimulus. Infarct size as a percent of risk region is presented on the y-axis. The first bar presents data from wild-type mice topically treated with capsaicin administered to the abdomen prior to surgical induction of ischemia and reperfusion (WT, Capsaicin, hatched bar). The second bar presents data from TRPV1 knockout mice topically treated with capsaicin administered to the abdomen prior to surgical induction of ischemia and reperfusion (TRPVKO, Capsaicin, dotted bar). The third bar presents data from TRPV1 knockout mice subjected to sham treatment prior to surgical induction of ischemia and reperfusion (TRPVKO No capsaicin, empty bar).
Mice were anesthetized with sodium pentobarbital (90 mg/kg ip), intubated with PE 90 tubing and ventilated using a mouse miniventilator (Harvard Apparatus, Holliston, Mass.). All mice were continuously monitored by electrocardiography (ECG) (DigiMed Sinus Rhythm Analyzer, Micro-Med Inc), and mice without evidence of ischemia and timely reperfusion were excluded from the studies. […]

[2] = system: murine ischemia/reperfusion model of myocardial infarction; assay: Blockade of the cardioprotection by remote electrical stimulation in mouse ischemia/reperfusion model
Description: A previously described mouse model of ischemia and reperfusion (I/R) injury in vivo was used (Ren et al. (2004) J. Surg Res. 121(1):120-129; Fan et al (2005) Circulation 111(14):1792-1799; Zhou et al (2007) Cardiovascular Research 75(3) 487-497; and Diwan et al (2007) J. Clinical Investigation 117(10):2825-2833, herein incorporated by reference in their entirety). Mice were anesthetized with sodium pentobarbital (90 mg/kg ip), intubated with PE 90 tubing and ventilated using a mouse miniventilator (Harvard Apparatus, Holliston, Mass.). All mice were continuously monitored by electrocardiography (ECG) (DigiMed Sinus Rhythm Analyzer, Micro-Med Inc), and mice without evidence of ischemia and timely reperfusion were excluded from the studies.
A lateral thoracotomy (1.5 cm incision between the second and third ribs was performed to provide exposure of the left anterior descending coronary artery (LAD). Vascular bundles in the vicinity were coagulated using a microcoagulator (Medical Industries Inc, St. Petersburg Fla.). An 8-0 nylon suture was placed around the LAD 2-3 mm from the tip of the left auricle and a piece of soft silicon tubing (0.64 mm ID, 1.19 mm OD) was placed over the artery. Coronary occlusion was achieved by tightening and tying the suture. Coronary occlusion was for 45 minutes, unless indicated otherwise. At the end of the occlusion, the suture was untied and left in place. Ischemia was confirmed by visual observation of cyanosis and by continuous ECG monitoring (QRS complex widening, T wave inversion and ST segment changes); reperfusion was confirmed by reversal of these effects.
Mice were euthanized either 4 or 24 hours after reperfusion and infarct size determination and imaging were performed by previously described methods (Ren et al. (2004) J. Surg Res. 121(1):120-129 and Guo et al (1998) Am J. Physiology 275 (4 Pt 2):H1375-1387, herein incorporated by reference in their entirety). Mice were anesthetized with pentobarbital sodium (35 mg/kg iv) and euthanized with an intravenous bolus of KCl. The heart was excised and perfused with Krebs-Henseleit solution through an aortic cannula (22 or 23-gauge needle) using a Langerdorff apparatus. To delineate infarcted from viable myocardium, the heart was then perfused with a 1% solution of 2,3,5-triphenyltetrazolium chloride (TTC) in phosphate buffer (pH 7.4, 37° C.) at a pressure of […] (approx. 3 ml over 3 min). To delineate the occluded-reperfused coronary vascular bed, the coronary artery was then tied at the site of the previous occlusion and the aortic root was perfused with a 5% solution of phthalo blue dye in normal saline. […] Infarct size was determined by the method of Fishbein et al (1981) Am Heart J 101(5):593-600, herein incorporated by reference in its entirety. […]

T1 sequence (Q704Y3 whole entry, the tested form may be a part): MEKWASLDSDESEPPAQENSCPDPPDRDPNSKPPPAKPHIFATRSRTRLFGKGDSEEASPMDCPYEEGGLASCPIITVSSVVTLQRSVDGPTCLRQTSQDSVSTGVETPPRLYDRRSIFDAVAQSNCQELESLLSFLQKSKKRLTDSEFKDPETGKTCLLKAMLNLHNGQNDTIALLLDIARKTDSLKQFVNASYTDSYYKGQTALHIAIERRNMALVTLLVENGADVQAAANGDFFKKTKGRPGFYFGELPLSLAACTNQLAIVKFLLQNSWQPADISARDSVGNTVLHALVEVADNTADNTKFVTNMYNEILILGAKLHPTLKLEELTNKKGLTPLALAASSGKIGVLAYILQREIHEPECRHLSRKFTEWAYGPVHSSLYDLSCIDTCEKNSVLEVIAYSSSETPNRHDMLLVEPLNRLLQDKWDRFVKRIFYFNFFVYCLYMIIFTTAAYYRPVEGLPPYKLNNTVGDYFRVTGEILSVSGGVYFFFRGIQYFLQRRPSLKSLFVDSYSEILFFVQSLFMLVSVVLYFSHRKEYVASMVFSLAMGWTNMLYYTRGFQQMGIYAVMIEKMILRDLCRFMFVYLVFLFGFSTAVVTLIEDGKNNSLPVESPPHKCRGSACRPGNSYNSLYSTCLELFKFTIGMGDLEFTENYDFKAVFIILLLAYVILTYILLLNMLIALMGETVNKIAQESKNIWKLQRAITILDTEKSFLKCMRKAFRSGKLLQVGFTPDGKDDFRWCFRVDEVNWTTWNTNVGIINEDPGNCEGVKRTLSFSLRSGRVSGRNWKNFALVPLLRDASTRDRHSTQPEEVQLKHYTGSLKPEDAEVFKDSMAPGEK

COc1cc(CNC(=O)CCCC/C=C/C(C)C)ccc1O [capsaicin, (6E)-N-[(4-Hydroxy-3-methoxyphenyl)methyl]-8-methyl-6-nonenamide]
reduction of infarct size (infarct size as a percent of the risk region) ([1]; remote pre-conditioning, stimulus given 15 minutes prior to the ischemia, abdominal topical, vs sham, n=6, P<0.01): 85%
infarct size as a percent of the risk region ([1]; remote pre-treatment prior to ischemia/reperfusion, vs sham, FIG. 1C): substantial reduction in infarct size
infarct size as a percent of risk area ([1]; topical application during ischemia (conditioning) or after reperfusion (postCON), vs sham, p<0.01, FIG. 10): significantly reduces infarct size
infarct size as a percent of risk region, WT vs TRPVKO (TRPV1): reduced myocardial infarct size as compared to TRPVKO mice

COc1ccc2c(c[n+](C)c3c4cc5c(cc4ccc23)OCO5)c1OC [chelerythrine]
inhibition of ischemia-related tissue damage (infarct size as a percentage of risk region) ([2]; chelerythrine plus ES vs vehicle plus ES, FIG. 3C): reduced inhibition of ischemia-related tissue damage

CCN(CC)CC(=O)Nc1c(C)cccc1C [lidocaine]
infarct size as a percent of risk region ([2]; 2% lidocaine prior to electrical stimulation (ES) and ischemia, vs vehicle ES, FIG. 2A): significantly higher percentage of risk region than infarction size in vehicle and ES treated mice
cardioprotective effect of the remote electrical stimulation ([2]; 10 μl lidocaine (2%) s.c. pre-treatment, 45 min occlusion): no significant cardioprotection relative to controls

CCCN(CCC)S(=O)(=O)c1ccc(C(=O)O)cc1 [probenecid]
infarct size as a percent of risk region ([1]; topical probenecid application vs sham/control animals, p<0.07, FIG. 11): significantly reduced

CC(C)NCC(O)COc1cccc2ccccc12 (stereo not drawn) [propanolol]
infarct size as a percentage of risk region ([2]; propanolol plus ES vs vehicle plus ES, FIG. 3B): significantly higher than infarct size in control mice treated only with the vehicle and electrically stimulated
